Source: patent US8530493B2, “Indolopyridines as Eg5 kinesin modulators” (4SC AG, priority 2006, dated 2013)

What was measured:
[1] = system: RKO p27 or p21 uninduced (proliferating) colon adenocarcinoma cells; test: Alamar Blue cell viability assay, RKO p27 or p21 uninduced (proliferating); format: cell-based; conditions: Homo sapiens, RKOp27, Table B2, anti-proliferative/cytotoxic activity, 72 hours, read-out: −log EC50 RKO p27 or p21 uninduced (proliferating) (converted)
Method in brief: (§1)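 Viability read by Alamar Blue fluorescence (ex 544, em 590 nm), normalised to untreated wells, after 72 h, 37° C, 5% CO2 compound exposure in triplicate. Cells were uninduced (no Ponasterone A), proliferating RKO colon carcinoma p27 or p21 subclones in DMEM with 10% FCS; values are −log EC50 (mol/l).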

[2] = system: RKO p27 induced (arrested) colon adenocarcinoma cells; test: Alamar Blue cell viability assay, RKO p27 induced by Ponasterone A (arrested); format: cell-based; conditions: Homo sapiens, RKOp27, Table B1, cells arrested by Ponasterone A-induced p27Kip1, 72 hours, read-out: −log EC50 RKO p27 induced (arrested) (converted)
Method in brief: (§2)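 RKOp21 or RKOp27 subclones in DMEM/10% FCS with 10 μM Ponasterone A to induce p21/p27 arrest, seeded 24 h before compound; triplicate 72 h exposure at 37 °C. Alamar Blue fluorescence (544/590 nm) as % of untreated (1% DMSO) cells; EC50 from dose-response curves, reported as −log EC50 (mol/l).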

[3] = system: RKO p27 uninduced (proliferating) colon adenocarcinoma cells; test: Alamar Blue cell viability assay, RKO p27 uninduced (proliferating); format: cell-based; conditions: Homo sapiens, RKOp27, Table B1, anti-proliferative/cytotoxic activity, 72 hours, read-out: −log EC50 RKO p27 uninduced (proliferating) (converted)
Method in brief: as §1

[4] = system: RKO p27 or p21 induced (arrested) colon adenocarcinoma cells; test: Alamar Blue cell viability assay, RKO p27 or p21 induced (arrested); format: cell-based; conditions: Homo sapiens, RKOp27, Table B2, cells arrested by Ponasterone A, 72 hours, read-out: −log EC50 RKO p27 or p21 induced (arrested) (converted)
Method in brief: as §2

## CCOc1ccc2[nH]c3c(c2c1)C[C@@]1(C)C(=O)N(CCBr)C(=O)N1[C@@H]3c1cccc(O)c1 (racemic) [Example 22, (3aSR,10RS)-2-(2-Bromo-ethyl)-6-ethoxy-10-(3-hydroxy-phenyl)-3a-methyl-3a,4,9,10-tetrahydro-2,9,10a-triaza-cyclopenta[b]fluorene-1,3-dione]
other
  melting point: 250 to 252 °C
[1]
  EC50: ≤ 39.8 nM
[2]
  EC50: ≥ 3160 nM
[3]
  EC50: 39.8 to 251 nM
[4]
  EC50: ≥ 316 nM

## CN(C)CCN1C(=O)N2[C@H](c3cccc(O)c3)c3[nH]c4ccc(Br)cc4c3C[C@@]2(C)C1=O (racemic) [Example 8, (3aSR,10RS)-6-Bromo-2-(2-dimethylamino-ethyl)-10-(3-hydroxy-phenyl)-3a-methyl-3a,4,9,10-tetrahydro-2,9,10a-triaza-cyclopenta[b]fluorene-1,3-dione]
other
  melting point: 286 to 288 °C
[2]
  EC50: ≥ 3160 nM
[3]
  EC50: ≤ 39.8 nM

## COc1ccc2[nH]c3c(c2c1)C[C@@]1(C)C(=O)N(CCN2CCOCC2)C(=O)N1[C@@H]3c1cccc(O)c1 (racemic) [Example 10, (3aSR,10RS)-10-(3-Hydroxy-phenyl)-6-methoxy-3a-methyl-2-(2-morpholin-4-yl-ethyl)-3a,4,9,10-tetrahydro-2,9,10a-triaza-cyclopenta[b]fluorene-1,3-dione]
other
  melting point: 260 to 263 °C
[2]
  EC50: ≥ 3160 nM
[3]
  EC50: ≤ 39.8 nM

## COc1ccc2[nH]c3c(c2c1)C[C@@]1(C)C(=O)N(CCCN(C)C)C(=O)N1[C@@H]3c1cccc(O)c1 (racemic) [Example 15, (3aSR,10RS)-2-(3-Dimethylamino-propyl)-10-(3-hydroxy-phenyl)-6-methoxy-3a-methyl-3a,4,9,10-tetrahydro-2,9,10a-triaza-cyclopenta[b]fluorene-1,3-dione]
other
  melting point: 228 to 231 °C
[2]
  EC50: ≥ 3160 nM
[3]
  EC50: ≤ 39.8 nM

## COc1ccc2[nH]c3c(c2c1)C[C@@]1(C)C(=O)N(CCN2CCCC2)C(=O)N1[C@@H]3c1cccc(O)c1 (racemic) [Example 11, (3aSR,10RS)-10-(3-Hydroxy-phenyl)-6-methoxy-3a-methyl-2-(2-pyrrolidin-1-yl-ethyl)-3a,4,9,10-tetrahydro-2,9,10a-triaza-cyclopenta[b]fluorene-1,3-dione]
other
  melting point: 252 to 255 °C
[2]
  EC50: ≥ 3160 nM
[3]
  EC50: ≤ 39.8 nM
